System: CD8+ T-lymphocytes
Assay: Human primary leucocyte viability: CD8+ T-lymphocytes
Assay type: cell-based
Details: 3 μM, 48 hours
Procedure: The effects of the reference compound (ABD735) on the viability of neutrophils, monocytes, CD4+ and CD8+ T-cells and B-lymphocytes was assessed under both resting and stimulated conditions. Resting conditions were used to assess likely effects on normal cells found in human blood, and stimulated conditions were used to assess the effects of the compound under disease conditions.
Effects on cell viability were assessed using flow cytometry. Flow cytometry is a laser-based, biophysical technology employed in cell counting, cell sorting, and biomarker detection, by suspending cells in a stream of fluid and passing them by an electronic detection apparatus. It allows simultaneous multi-parametric analysis of the physical and chemical characteristics of up to thousands of particles per second. The sorting of cells using flow cytometry requires the use of specific cell markers. To quantify cell numbers, counting beads are used as an internal standard. […] In addition, for B- and T-lymphocytes, cell proliferation was measured using a dye known as Cell Proliferation Dye (eFluor® 450). eFluor® 450 is an organic dye which can be conjugated to cell-specific markers. […]
The average results (n=3) for the reference compound (ABD735) were expressed as a fold change versus the average control value. […]

Structure (SMILES): Cc1cc(S(=O)(=O)N[C@H]2CC[C@H](O)CC2)ccc1-c1ccc(F)cc1F [ABD735]
- Fold change in viability (no stimulation): 0.8
- Fold change in viability (phytohaemagglutinin): 0.7
